The text below walks through data of PubChem BioAssay (NCI).

Structures are written as SMILES. “And” between values parts separate entries of the source, which are not always exact repeats. Equal values may be shown once.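 Protocol summary: plate cells (96-well), add compound at 5 concentrations, incubate 48 h, interpolate endpoints linearly. Here, GI50 denotes the concentration required for 50% inhibition of growth. The concentration for full growth arrest is given as TGI.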 Where only a bound is given, the exact number is not on record here.

Among the test systems are A549 NSCLC; BT-549 breast; HOP-62 NSCLC; HOP-92 NSCLC; HS 578T breast; LOX IMVI melanoma; MDA-MB-435; NCI-H522 lung; SK-MEL-5 melanoma; SW-620 colon.
Holding throughout (assay): NCI-60 cell line screen, 48 h

On to `CC1=CCCC2C1(C)CCC(C)C2(C)Cc1cc(O)ccc1O` (stereo not given), for which the GI50 in the assay with A549 NSCLC was 7.14 µM; in the assay on HOP-62 NSCLC, 15.2 µM; in the assay with LOX IMVI melanoma it was 3.6 µM; in the assay on NCI-H522 lung, 3.65 µM; in the assay on SK-MEL-5 melanoma it was 10.6 µM; in the assay with SW-620 colon, 12.9 µM. Further, the TGI was 20.5 µM and 21.6 µM in the assay with A549 NSCLC; 16.2 µM in the assay on BT-549 breast; 28.9 µM and 35.7 µM in the assay with HOP-62 NSCLC; 22.6 µM and 15.2 µM in the assay with HOP-92 NSCLC; 17.9 µM with HS 578T breast; 16.2 µM and 16.3 µM in the assay with LOX IMVI melanoma. In addition, the TGI in the assay on MDA-MB-435 is 27 µM; in the assay with NCI-H522 lung, 12.7 µM and 8.37 µM; with SK-MEL-5 melanoma, 27.7 µM and 24.9 µM; with SW-620 colon, 33.3 µM and 23.3 µM.
For `O=[N+]([O-])c1ccc(C2CC(c3ccccc3)=Nc3ccccc3S2)cc1` (stereo not given), the GI50 in the assay with A549 NSCLC is greater than 100 µM; with BT-549 breast it was greater than 100 µM; with HOP-62 NSCLC it was 97.1 µM; in the assay with HOP-92 NSCLC, 24.5 µM; in the assay with HS 578T breast, 19.1 µM; in the assay with LOX IMVI melanoma, 3.68 µM. The GI50 in the assay with MDA-MB-435 is greater than 100 µM; in the assay with NCI-H522 lung, greater than 100 µM; in the assay with SK-MEL-5 melanoma, greater than 100 µM; in the assay with SW-620 colon, 2.75 µM. The TGI with A549 NSCLC, with BT-549 breast, in the assay on HOP-62 NSCLC, in the assay on HOP-92 NSCLC, in the assay on HS 578T breast and with LOX IMVI melanoma was greater than 100 µM in each case. The TGI in the assay with MDA-MB-435 is greater than 100 µM; with NCI-H522 lung it was greater than 100 µM; with SK-MEL-5 melanoma, greater than 100 µM; in the assay with SW-620 colon, 11.1 µM.
Turning to `CC1=NN(c2ccc(S(=O)(=O)O)cc2)C(=O)/C1=C/c1ccc(Cl)cc1`, the TGI with A549 NSCLC, in the assay with BT-549 breast, in the assay on HOP-62 NSCLC, in the assay on HOP-92 NSCLC, in the assay with HS 578T breast and in the assay on LOX IMVI melanoma was greater than 100 µM in each case. The TGI in the assay on MDA-MB-435, with NCI-H522 lung, with SK-MEL-5 melanoma and with SW-620 colon was greater than 100 µM in each case.
Regarding `COc1cc2c(cc1Cc1cccc(Cl)c1F)c(=O)c(C(=O)O)cn2[C@@H](CO)C(C)C`, the GI50 with A549 NSCLC was 3.11 µM; in the assay on BT-549 breast, 2.09 µM; with HOP-62 NSCLC, 5.22 µM; in the assay on HOP-92 NSCLC it was 1.45 µM; in the assay on HS 578T breast, 3.97 µM; in the assay with LOX IMVI melanoma it was 2.69 µM. Moreover, the GI50 in the assay on MDA-MB-435 was 3.84 µM; with NCI-H522 lung, 3.51 µM; in the assay on SK-MEL-5 melanoma it was 2.85 µM; with SW-620 colon, 3.57 µM. For the same molecule, the TGI amounted to 12.2 µM in the assay with A549 NSCLC; 8.66 µM with BT-549 breast; 18.6 µM in the assay on HOP-62 NSCLC; 6.34 µM in the assay on HOP-92 NSCLC; 32.7 µM in the assay on HS 578T breast; 10.1 µM in the assay on LOX IMVI melanoma. Also, the TGI with MDA-MB-435 came to 15.2 µM; with NCI-H522 lung, 11.7 µM; in the assay with SK-MEL-5 melanoma, 8.88 µM; with SW-620 colon, 15 µM.
For the molecule `[Cl][Hg][c]1ccc(Cl)s1`, the GI50 in the assay on A549 NSCLC was 18.7 µM; in the assay with BT-549 breast, 2.11 µM; in the assay on HOP-62 NSCLC, 4.29 µM; in the assay with HOP-92 NSCLC it was 1.67 µM; in the assay with HS 578T breast, 4.41 µM; in the assay with LOX IMVI melanoma, 1.53 µM. The GI50 in the assay on MDA-MB-435 was 2.08 µM; with NCI-H522 lung, 0.114 µM; in the assay with SK-MEL-5 melanoma, 2.45 µM; in the assay on SW-620 colon, 1.04 µM. Besides, the TGI is 60.9 µM with A549 NSCLC; 5.21 µM with BT-549 breast; 21.8 µM in the assay on HOP-62 NSCLC; 3.11 µM in the assay on HOP-92 NSCLC; 73.7 µM in the assay on HS 578T breast; 3.24 µM in the assay on LOX IMVI melanoma. In addition, the TGI is 5.7 µM with MDA-MB-435, 0.325 µM in the assay with NCI-H522 lung, 7.34 µM in the assay with SK-MEL-5 melanoma and 2.59 µM in the assay with SW-620 colon.
For the molecule `C[C@]12CC[C@@H]3c4cc(O)c(O)cc4CC[C@H]3[C@@H]1CC[C@@H]2O`, the GI50 is 7.16 µM in the assay on A549 NSCLC; 1.78 µM in the assay with BT-549 breast; 4.08 µM in the assay with HOP-62 NSCLC; 3.32 µM with HOP-92 NSCLC; 1.98 µM with HS 578T breast; 5.97 µM with LOX IMVI melanoma. Moreover, the GI50 in the assay with MDA-MB-435 was 0.286 µM; in the assay on NCI-H522 lung, 0.987 µM; in the assay with SK-MEL-5 melanoma it was 3.54 µM; with SW-620 colon, 2.73 µM. Further, the TGI is greater than 82.4 µM with A549 NSCLC; 42.3 µM with BT-549 breast; 54.6 µM with HOP-62 NSCLC; 29 µM in the assay on HOP-92 NSCLC; 17.5 µM in the assay with HS 578T breast; 23.6 µM in the assay on LOX IMVI melanoma. Further, the TGI was 1.1 µM in the assay with MDA-MB-435, 3.83 µM in the assay on NCI-H522 lung, 16.1 µM in the assay with SK-MEL-5 melanoma and greater than 42.5 µM in the assay with SW-620 colon.
As to `CCCCCCCCC/C(=N\NC(=O)c1ccncc1)c1ccc(O)c(O)c1O`, the GI50 was 0.302 µM in the assay with A549 NSCLC; 0.36 µM with BT-549 breast; 0.09 µM in the assay with HOP-62 NSCLC; 0.385 µM with HOP-92 NSCLC; 0.0937 µM in the assay on LOX IMVI melanoma; 0.456 µM in the assay with MDA-MB-435. In addition, the GI50 was 0.418 µM in the assay with NCI-H522 lung, 0.139 µM in the assay with SK-MEL-5 melanoma and 0.365 µM with SW-620 colon. The TGI in the assay on A549 NSCLC was greater than 100 µM; with BT-549 breast, 67.2 µM; in the assay with HOP-62 NSCLC, 16 µM; with HOP-92 NSCLC, greater than 100 µM; in the assay on HS 578T breast, greater than 100 µM; with LOX IMVI melanoma, 11.9 µM. The TGI is greater than 100 µM in the assay on MDA-MB-435, 23.1 µM in the assay on NCI-H522 lung, 0.494 µM in the assay on SK-MEL-5 melanoma and 28.3 µM in the assay with SW-620 colon.
Take `C=C1C(=O)O[C@H]2C[C@@H]1CC/C(C)=C/CC/C(C)=C/CC[C@@]2(C)O`: the GI50 in the assay with A549 NSCLC is greater than 100 µM; in the assay with BT-549 breast, 24.2 µM; in the assay with HOP-62 NSCLC, greater than 100 µM; in the assay with HOP-92 NSCLC, 19.5 µM; in the assay on HS 578T breast, 48 µM; in the assay on LOX IMVI melanoma it was 17.4 µM. Besides, the GI50 in the assay with MDA-MB-435 is 57.5 µM; with NCI-H522 lung, 27.4 µM; in the assay on SK-MEL-5 melanoma it was 37.7 µM; in the assay on SW-620 colon, 35 µM. Moreover, the TGI in the assay on A549 NSCLC is greater than 100 µM; in the assay with BT-549 breast it was 59.9 µM; in the assay with HOP-62 NSCLC, greater than 100 µM; with HOP-92 NSCLC, 42.7 µM; in the assay on HS 578T breast, greater than 100 µM; in the assay on LOX IMVI melanoma, 31.5 µM. The TGI was greater than 100 µM in the assay on MDA-MB-435, 79 µM in the assay on NCI-H522 lung, greater than 100 µM in the assay with SK-MEL-5 melanoma and greater than 100 µM with SW-620 colon.
